Laboratory results reported in PMC11819763, “Activity of Potassium Channel BmK-NSPK Inhibitor Regulated by Basic Amino Acid Residues: Novel Insight into the Diverse Peptide Pharmacology” (Molecules, 2025).
Like-named read-outs stand apart in the source and are kept apart here. Positions of bridges follow the written chain, without caps; N, C: chain ends. Residues, ends and D or L forms follow the SMILES beside them.

Tests used:
[1] = molecular target: human Kv1.3 potassium channel (human) (UniProt P22001)
[2] = molecular target: hKv1.1 channel (human) (UniProt Q09470)
[3] = molecular target: hKv1.2 channel (human) (UniProt P16389)
[4] = molecular target: hKv1.6 channel (human) (UniProt P17658)
[5] = molecular target: human Kv1.3 potassium channel (human) (UniProt P22001); remark: listed apart in the source
[6] = test system: hKv1.3-M1 channel (turret domain of hKv1.3 substituted by hKv1.2 region); experiment: Whole-cell patch clamp, chimeric hKv1.3-M1 channel currents; format: cell-based, human; conditions: mean ± SE, n ≥ 3, SEM
Protocol: In order to further investigate the effect of basic residue number on BmK-NSPK pharmacology, the activities of BmK-NSPK analogs were also tested on the Kv1.3 channel chimeras in this work. […] Based on the weak inhibition potencies of BmK-NSPK-7K and BmK-NSPK-8K towards hKv1.2 channel (Figure 5C,D), the work first constructed the chimeric hKv1.3-M1, in which the turret domain of hKv1.3 channel was substituted by the equivalent region of hKv1.2 channel (Figure 6A). Pharmacological experiments with 100 nM and 1 μM MeuKTX were able to inhibit 45.7 ± 7.9% and 82.8 ± 6.1% of hKv1.3-M1 channel currents, respectively (Figure 6B).
(§1) The pRc/CMV-hKv1.3 was kindly provided by Professor Stephan Grissmer (University of Ulm, Ulm, Germany) and Professor Olaf Pongs (Zentrum für Molekulare Neurobiologie der Universität Hamburg, Hamburg, Germany). The cDNAs encoding hKv1.1 and hKv1.2 (from Professor Stephan Grissmer, University of Ulm, Ulm, Germany) were subcloned into the vector pIRES2-EGFP (TaKaRa Clontech, Mountain View, CA, USA). The cDNAs encoding hKv1.6 were subcloned into the vector pcDNA 3.1(+) (TaKaRa Clontech, Mountain View, CA, USA). A QuikChange Site-Directed Mutagenesis Kit (Stratagene, La Jolla, CA, USA) was used to produce the mutants based on the wild-type hKv1.3 channel plasmids. All plasmids and their mutants were verified by DNA sequencing before the expression. The three channel chimeras were, respectively, named by hKv1.3-M1 (425DPTSGFS432 → 425ERESQFP432), hKv1.3-M2 (452HPV456 → 452VPT456) and hKv1.3-M3 (425DPTSGFS432 → 425ERESQFP432, 452HPV456 → 452VPT456).
(§2) In a 5% CO2 incubator at 37 °C, HEK293T cells were cultured in DMEM medium (Gibco, Grand Island, NY, USA) supplemented with 10% fetal bovine serum and 1% penicillin/streptomycin. Potassium channel plasmids and pEGFP-N1 were co-transfected into the HEK293 cells using the ExFect Transfection Reagent (Vazyme, Nanjin, China). After one day of transfection, the potassium currents were recorded, and the positive cells were selected based on the presence of GFP fluorescence.
(§3) Whole-cell current measurement and data acquisition were performed using an EPC-10 patch-clamp amplifier controlled by Pulse (HEKA Elektronik, Lambrecht, Germany). The potassium currents were recorded according to the recording protocol for the Kv1 channel, as described in previously published references. Peptides were dissolved in an external solution containing 0.01% BSA for electrophysiological experiments. The patch pipette solution contained 140 mM KF (Sigma, St. Louis, MC, USA), 2 mM MgCl2 (Sinopharm Chemical Reagent Co., Ltd., Shanghai, China), 1 mM EGTA (Sigma) and 10 mM HEPES (neoFroxx, Einhausen, Hessen, Germany) (pH adjusted to 7.4 with KOH (Sinopharm Chemical Reagent Co., Ltd., Shanghai, China)), and the bath solution contained 4.5 mM KCl, 160 Mm NaCl (Sinopharm Chemical Reagent Co., Ltd., Shanghai, China), 5 mM HEPES, 2 mM CaCl2 (Sinopharm Chemical Reagent Co., Ltd., Shanghai, China) and 1 mM MgCl2 (pH adjusted to 7.4 with NaOH (Sinopharm Chemical Reagent Co., Ltd., Shanghai, China)).
(§4) Graphing and data analysis were conducted using GraphPad Prism software (Version 8.0, San Diego, CA, USA), ClampFit software (version 10.2, Molecular Devices, Sunnyvale, CA, USA), and SigmaPlot software (version 12.0, IBM SPSS, Chicago, IL, USA). The dose–response relationship between the channel current and peptide inhibition was modeled by the modified Hill equation: Ipeptide/Icontrol = 1/{1 + [peptide]/IC50}, where Ipeptide represents the potassium current under peptide inhibition, Icontrol represents the peak current, IC50 is the half-maximal inhibition concentration and [peptide] represents the peptide concentration. The IC50 was obtained by fitting the Hill equation. Results are presented as mean ± SE, with each sample tested on at least three cells (n ≥ 3).

[7] = test system: hKv1.2 channel; experiment: Whole-cell patch clamp, hKv1.2 channel currents; format: cell-based, human; conditions: 1 μM peptide, mean ± SE, n ≥ 3, SEM
Text: as §1, §2
(§5) Whole-cell current measurement and data acquisition were performed using an EPC-10 patch-clamp amplifier controlled by Pulse (HEKA Elektronik, Lambrecht, Germany). The potassium currents were recorded according to the recording protocol for the Kv1 channel, as described in previously published references. Peptides were dissolved in an external solution containing 0.01% BSA for electrophysiological experiments. […]

[8] = test system: hKv1.3-M2 channel (filter region of hKv1.3 substituted by hKv1.2 region); experiment: Whole-cell patch clamp, chimeric hKv1.3-M2 channel currents; format: cell-based, human; conditions: mean ± SE, n ≥ 3, SEM
Protocol: Apart from the chimeric hKv1.3-M1, this work further constructed the chimeric hKv1.3-M2 channel, in which the filter region of hKv1.3 channel was substituted by the equivalent region of hKv1.2 channel (Figure 6A). Pharmacological experiments 100 nM and 1 μM MeuKTX were able to inhibit 78.3 ± 4.9% and 95.9 ± 1.3% of hKv1.3-M2 channel currents, respectively, which indicated the minor effect of channel filter region on MeuKTX binding (Figure 6B). However, more significant effects were also observed for BmK-NSPK analogs with different numbers of basic residues.
as §1, §2, §3, §4

[9] = test system: hKv1.6 channel; experiment: Whole-cell patch clamp, hKv1.6 channel currents; format: cell-based, human; conditions: 1 μM peptide, mean ± SE, n ≥ 3, SEM
Text: as §1, §2, §5

[10] = test system: hKv1.1 channel; experiment: Whole-cell patch clamp, hKv1.1 channel currents; format: cell-based, human; conditions: 1 μM peptide, mean ± SE, n ≥ 3, SEM
Text: as §1, §2, §5

[11] = test system: hKv1.3-M3 channel (turret, pore helix and filter region of hKv1.3 replaced by hKv1.2 regions); experiment: Whole-cell patch clamp, chimeric hKv1.3-M3 channel currents; format: cell-based, human; conditions: mean ± SE, n ≥ 3, SEM
Text: as §1, §2, §3, §4

Sequence of human Kv1.3 potassium channel (human) (P22001 whole entry, the tested form may be a part): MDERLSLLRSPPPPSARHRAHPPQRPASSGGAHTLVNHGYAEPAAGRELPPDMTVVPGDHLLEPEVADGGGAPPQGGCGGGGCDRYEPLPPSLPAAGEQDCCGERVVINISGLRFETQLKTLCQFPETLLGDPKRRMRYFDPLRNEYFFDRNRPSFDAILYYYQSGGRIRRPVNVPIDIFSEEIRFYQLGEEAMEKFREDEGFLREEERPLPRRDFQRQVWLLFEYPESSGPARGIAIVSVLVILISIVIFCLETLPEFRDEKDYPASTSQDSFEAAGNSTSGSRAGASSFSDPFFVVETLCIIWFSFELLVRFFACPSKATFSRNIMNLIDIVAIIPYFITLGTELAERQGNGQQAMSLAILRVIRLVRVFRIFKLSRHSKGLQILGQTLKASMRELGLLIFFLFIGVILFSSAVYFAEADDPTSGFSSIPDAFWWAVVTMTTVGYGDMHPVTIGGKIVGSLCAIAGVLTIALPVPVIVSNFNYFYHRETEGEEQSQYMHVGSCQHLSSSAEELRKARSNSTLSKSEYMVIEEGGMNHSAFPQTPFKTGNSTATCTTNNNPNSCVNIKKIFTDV
Sequence of KTX-3 peptide (P59290 whole entry): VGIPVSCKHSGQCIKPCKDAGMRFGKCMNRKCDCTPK
Sequence of hKv1.1 channel (human) (Q09470 whole entry): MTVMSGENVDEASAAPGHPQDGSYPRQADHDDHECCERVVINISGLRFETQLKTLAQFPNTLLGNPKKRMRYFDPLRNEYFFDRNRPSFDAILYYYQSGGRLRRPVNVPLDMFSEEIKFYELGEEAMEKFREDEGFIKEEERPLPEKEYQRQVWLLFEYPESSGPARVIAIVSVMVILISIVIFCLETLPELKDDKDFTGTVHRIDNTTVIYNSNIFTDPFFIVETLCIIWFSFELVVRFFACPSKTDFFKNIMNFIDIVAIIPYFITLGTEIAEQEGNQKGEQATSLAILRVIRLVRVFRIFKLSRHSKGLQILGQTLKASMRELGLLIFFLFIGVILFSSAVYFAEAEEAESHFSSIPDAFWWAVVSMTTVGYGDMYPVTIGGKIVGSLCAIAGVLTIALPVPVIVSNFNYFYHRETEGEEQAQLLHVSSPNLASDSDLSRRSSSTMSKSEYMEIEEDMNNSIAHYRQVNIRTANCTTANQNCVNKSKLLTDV
Sequence of hKv1.6 channel (human) (P17658 whole entry): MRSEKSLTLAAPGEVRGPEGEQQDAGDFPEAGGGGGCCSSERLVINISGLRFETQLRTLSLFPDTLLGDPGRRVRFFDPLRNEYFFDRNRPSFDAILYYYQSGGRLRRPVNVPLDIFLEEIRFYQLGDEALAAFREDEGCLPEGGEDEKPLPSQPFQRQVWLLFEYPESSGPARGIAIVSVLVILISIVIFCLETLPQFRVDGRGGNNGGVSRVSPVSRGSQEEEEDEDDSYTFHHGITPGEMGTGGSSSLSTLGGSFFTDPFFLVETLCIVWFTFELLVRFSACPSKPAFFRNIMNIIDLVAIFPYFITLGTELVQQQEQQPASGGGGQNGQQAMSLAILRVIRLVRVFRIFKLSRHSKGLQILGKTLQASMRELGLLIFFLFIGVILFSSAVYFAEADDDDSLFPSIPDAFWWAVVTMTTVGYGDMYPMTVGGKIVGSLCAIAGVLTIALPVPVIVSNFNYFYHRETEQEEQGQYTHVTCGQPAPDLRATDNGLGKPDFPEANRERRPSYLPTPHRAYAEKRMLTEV
Sequence of hKv1.2 channel (human) (P16389 whole entry): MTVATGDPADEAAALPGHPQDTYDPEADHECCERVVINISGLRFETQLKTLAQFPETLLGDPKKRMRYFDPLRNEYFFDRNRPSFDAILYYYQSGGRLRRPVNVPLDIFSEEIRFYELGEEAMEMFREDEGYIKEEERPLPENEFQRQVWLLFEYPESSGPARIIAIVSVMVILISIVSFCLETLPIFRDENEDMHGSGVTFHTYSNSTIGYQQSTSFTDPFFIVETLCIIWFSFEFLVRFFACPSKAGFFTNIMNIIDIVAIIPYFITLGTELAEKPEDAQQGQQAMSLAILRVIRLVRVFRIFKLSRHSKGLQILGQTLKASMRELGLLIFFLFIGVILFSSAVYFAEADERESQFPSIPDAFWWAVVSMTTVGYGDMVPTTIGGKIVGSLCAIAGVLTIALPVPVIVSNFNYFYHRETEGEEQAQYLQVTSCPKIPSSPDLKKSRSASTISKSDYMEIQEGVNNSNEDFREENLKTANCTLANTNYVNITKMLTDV
Sequence of KTX-2 peptide (P45696 23-59): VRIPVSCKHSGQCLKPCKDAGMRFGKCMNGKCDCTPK

BmK-NSPK peptide
inhibition of hKv1.3 channel currents by 1 μM peptide (whole-cell patch clamp, HEK293T) [1]: 2.3% | inhibition of hKv1.1 channel currents by 1 μM peptide (whole-cell patch clamp, HEK293T) [2]: 1.2% | inhibition of hKv1.2 channel currents by 1 μM peptide (whole-cell patch clamp, HEK293T) [3]: 1.7% | inhibition of hKv1.6 channel currents by 1 μM peptide (whole-cell patch clamp, HEK293T) [4]: 5.4%

BmK-NSPK-I18K/I26K/K28M (peptide)
inhibition of hKv1.3 channel currents by 1 μM peptide (whole-cell patch clamp, HEK293T) [5]: 26.5%

KTX-3 peptide (from UniProt P59290 1-37)
IC50 of inhibition of hKv1.3 channel currents (whole-cell patch clamp, HEK293T) [1]: 0.46 nM | inhibition of hKv1.3 channel currents by 1 μM peptide (whole-cell patch clamp, HEK293T) [1]: 91.6%

MeuKTX peptide
IC50 of inhibition of hKv1.3 channel currents (whole-cell patch clamp, HEK293T) [1]: 2.63 nM | inhibition of hKv1.1 channel currents by 1 μM peptide (whole-cell patch clamp, HEK293T) [2]: 90.7% | inhibition of hKv1.2 channel currents by 1 μM peptide (whole-cell patch clamp, HEK293T) [3]: 14.6% | inhibition of hKv1.6 channel currents by 1 μM peptide (whole-cell patch clamp, HEK293T) [4]: 77.4%

KTX-2 peptide (from UniProt P45696 23-59)
IC50 of inhibition of hKv1.3 channel currents (whole-cell patch clamp, HEK293T) [1]: 0.32 nM | inhibition of hKv1.3 channel currents by 1 μM peptide (whole-cell patch clamp, HEK293T) [1]: 94.9%

CC[C@H](C)[C@H](NC(=O)CNC(=O)[C@@H](N)C(C)C)C(=O)N[C@@H](CC(N)=O)C(=O)N[C@H](C(=O)N[C@@H](CCCCN)C(=O)N[C@H]1CSSC[C@@H]2NC(=O)[C@H](CCCCN)NC(=O)CNC(=O)[C@H](Cc3ccccc3)NC(=O)[C@H](CCCNC(=N)N)NC(=O)[C@H](CCSC)NC(=O)CNC(=O)[C@H](C)NC(=O)[C@H](CC(=O)O)NC(=O)[C@H](CCCCN)NC(=O)[C@@H]3CSSC[C@@H](C(=O)N[C@H](C(=O)N4CCC[C@H]4C(=O)N[C@@H](CCCCN)C(=O)NCC(=O)O)[C@@H](C)O)NC(=O)[C@H](CC(=O)O)NC(=O)[C@H](CSSC[C@H](NC(=O)[C@H](CCC(N)=O)NC(=O)CNC(=O)[C@H](CO)NC(=O)[C@H](Cc4c[nH]cn4)NC(=O)[C@H](CCCCN)NC1=O)C(=O)N[C@@H](CC(C)C)C(=O)N[C@@H](CCCCN)C(=O)N1CCC[C@H]1C(=O)N3)NC(=O)[C@H](CCCCN)NC(=O)CNC(=O)[C@H](CC(N)=O)NC(=O)[C@H](CCSC)NC2=O)C(C)C [BmK-NSPK-7K] (H-VGINVKCKHSGQCLKPCKDAGMRFGKCMNGKCDCTPKG-OH; disulfide 7-27, 13-32, 17-34 (inferred); N-terminus and C-terminus assumed)
inhibition of hKv1.3-M1 channel currents ([6]; 100 nM peptide): 23.4 ± 3.4% | inhibition of hKv1.3-M1 channel currents ([6]; 1 μM peptide): 78.8 ± 3.4% | inhibition of hKv1.2 channel currents [7]: 9.2 ± 0.6% | inhibition of hKv1.3-M2 channel currents ([8]; 100 nM peptide): 35.4 ± 6.7% | inhibition of hKv1.3-M2 channel currents ([8]; 1 μM peptide): 72.9 ± 7.0% | inhibition of hKv1.6 channel currents [9]: 79.2 ± 2.4% | inhibition of hKv1.1 channel currents [10]: 84.1 ± 7.0% | inhibition of hKv1.3-M3 channel currents ([11]; 100 nM peptide): 1.2 ± 0.21% | inhibition of hKv1.3-M3 channel currents ([11]; 1 μM peptide): 7.4 ± 0.64%

CC[C@H](C)[C@H](NC(=O)CNC(=O)[C@@H](N)C(C)C)C(=O)N[C@@H](CC(N)=O)C(=O)N[C@H](C(=O)N[C@@H](CCCCN)C(=O)N[C@H]1CSSC[C@@H]2NC(=O)[C@H](CCCCN)NC(=O)CNC(=O)[C@H](Cc3ccccc3)NC(=O)[C@H](CCCNC(=N)N)NC(=O)[C@H](CCSC)NC(=O)CNC(=O)[C@H](C)NC(=O)[C@H](CC(=O)O)NC(=O)[C@H](CCCCN)NC(=O)[C@@H]3CSSC[C@@H](C(=O)N[C@H](C(=O)N4CCC[C@H]4C(=O)N[C@@H](CCCCN)C(=O)O)[C@@H](C)O)NC(=O)[C@H](CC(=O)O)NC(=O)[C@H](CSSC[C@H](NC(=O)[C@H](CCC(N)=O)NC(=O)CNC(=O)[C@H](CO)NC(=O)[C@H](Cc4c[nH]cn4)NC(=O)[C@H](CCCCN)NC1=O)C(=O)N[C@@H](CC(C)C)C(=O)N[C@@H](CCCCN)C(=O)N1CCC[C@H]1C(=O)N3)NC(=O)[C@H](CCCCN)NC(=O)CNC(=O)[C@H](CC(N)=O)NC(=O)[C@H](CCSC)NC2=O)C(C)C [MeuKTX, reference compound] (H-VGINVKCKHSGQCLKPCKDAGMRFGKCMNGKCDCTPK-OH; disulfide 7-27, 13-32, 17-34 (inferred); N-terminus and C-terminus assumed)
inhibition of hKv1.3-M1 channel currents ([6]; 100 nM peptide): 45.7 ± 7.9% | inhibition of hKv1.3-M1 channel currents ([6]; 1 μM peptide): 82.8 ± 6.1% | inhibition of hKv1.2 channel currents [7]: 14.6 ± 2.6% | inhibition of hKv1.3-M2 channel currents ([8]; 100 nM peptide): 78.3 ± 4.9% | inhibition of hKv1.3-M2 channel currents ([8]; 1 μM peptide): 95.9 ± 1.3% | inhibition of hKv1.6 channel currents [9]: 77.4 ± 2.7% | inhibition of hKv1.1 channel currents [10]: 90.7 ± 1.1% | inhibition of hKv1.3-M3 channel currents ([11]; 100 nM peptide): 3.9 ± 0.21% | inhibition of hKv1.3-M3 channel currents ([11]; 1 μM peptide): 16.1 ± 2.0%
